≈ marks a conversion by molar mass, not a printed value. Non-standard residues stand in square brackets, D forms with d. Residues, ends and D or L forms follow the SMILES beside them. Dip = N[C@H](C(=O)O)C(c1ccccc1)c1ccccc1; 2Nal = N[C@@H](Cc1ccc2ccccc2c1)C(=O)O
Experiments:
[1] = system: Methicillin-resistant Staphylococcus aureus MRSA (ATCC BAA-1556); settings: ATCC BAA-1556
S. aureus ATCC 29213 = settings: ATCC 29213
[2] = system: Pseudomonas aeruginosa (ATCC 27883); settings: ATCC 27883
[3] = system: Escherichia coli (ATCC 25922); settings: ATCC 25922
human red blood cells = system: human red blood cells; design: unit not given beside the values

SMILES | MIC MRSA ATCC BAA-1556 [1] [µg/mL] | MIC S. aureus ATCC 29213 (S. aureus ATCC 29213) [µg/mL] | MIC P. aeruginosa ATCC 27883 [2] [µg/mL] | MIC E. coli ATCC 25922 [3] [µg/mL] | HC50 (human red blood cells)
N=C(N)NCCC[C@@H]1NC(=O)[C@H](CCCNC(=N)N)NC(=O)[C@H](CCCNC(=N)N)NC(=O)[C@H](C(c2ccccc2)c2ccccc2)NC(=O)[C@H](C(c2ccccc2)c2ccccc2)NC(=O)[C@H](C(c2ccccc2)c2ccccc2)NC(=O)[C@H](C(c2ccccc2)c2ccccc2)NC(=O)[C@H](CCCNC(=N)N)NC1=O [IFX-005, c[Arg-Arg-Arg-Arg-Dip-Dip-Dip-Dip]] (cyclo([Dip][Dip][Dip][Dip]RRRR)) | 6.2 (≈ 4.08 µM) | 3.1 (≈ 2.04 µM) | 25 (≈ 16.5 µM) | 25 (≈ 16.5 µM) | 95
N=C(N)NCCC[C@H](NC(=O)[C@H](CCCNC(=N)N)NC(=O)[C@@H](N)CCCNC(=N)N)C(=O)N[C@@H](CCCNC(=N)N)C(=O)N[C@H](C(=O)N[C@H](C(=O)N[C@H](C(=O)N[C@H](C(=O)O)C(c1ccccc1)c1ccccc1)C(c1ccccc1)c1ccccc1)C(c1ccccc1)c1ccccc1)C(c1ccccc1)c1ccccc1 [IFX-005-1, NH2-Arg-Arg-Arg-Arg-Dip-Dip-Dip-Dip-OH] (H-RRRR[Dip][Dip][Dip][Dip]-OH) | 6.2 (≈ 4.04 µM) | 6.2 (≈ 4.04 µM) | 50 (≈ 32.6 µM) | 50 (≈ 32.6 µM) | 135
N=C(N)NCCC[C@@H]1NC(=O)[C@H](CCCNC(=N)N)NC(=O)[C@H](CCCNC(=N)N)NC(=O)[C@H](Cc2ccc3ccccc3c2)NC(=O)[C@H](Cc2ccc3ccccc3c2)NC(=O)[C@H](Cc2ccc3ccccc3c2)NC(=O)[C@H](Cc2ccc3ccccc3c2)NC(=O)[C@H](CCCNC(=N)N)NC1=O [IFX-006, c[Arg-Arg-Arg-Arg-NaI-NaI-NaI-NaI]] (cyclo([2Nal][2Nal][2Nal][2Nal]RRRR)) | 6.2 (≈ 4.39 µM) | 3.1 (≈ 2.19 µM) | 50 (≈ 35.4 µM) | 25 (≈ 17.7 µM) | 120
N=C(N)NCCC[C@H](NC(=O)[C@H](CCCNC(=N)N)NC(=O)[C@H](CCCNC(=N)N)NC(=O)[C@@H](N)CCCNC(=N)N)C(=O)N[C@@H](Cc1ccc2ccccc2c1)C(=O)N[C@@H](Cc1ccc2ccccc2c1)C(=O)N[C@@H](Cc1ccc2ccccc2c1)C(=O)N[C@@H](Cc1ccc2ccccc2c1)C(=O)O [IFX-006-1, NH2-Arg-Arg-Arg-Arg-NaI-NaI-NaI-NaI-OH] (H-RRRR[2Nal][2Nal][2Nal][2Nal]-OH) | 6.2 (≈ 4.33 µM) | 3.1 (≈ 2.17 µM) | >100 | 50 (≈ 34.9 µM) | 140
N=C(N)NCCC[C@H](NC(=O)[C@H](CCCNC(=N)N)NC(=O)[C@@H](N)CCCNC(=N)N)C(=O)N[C@@H](CCCNC(=N)N)C(=O)N[C@H](C(=O)N[C@H](C(=O)N[C@H](C(=O)O)C(c1ccccc1)c1ccccc1)C(c1ccccc1)c1ccccc1)C(c1ccccc1)c1ccccc1 [IFX-008-1, NH2-Arg-Arg-Arg-Arg-Dip-Dip-Dip-OH] (H-RRRR[Dip][Dip][Dip]-OH) | 3.1 (≈ 2.36 µM) | 3.1 (≈ 2.36 µM) | 6.2 (≈ 4.72 µM) | 6.2 (≈ 4.72 µM) | 210
N=C(N)NCCC[C@@H]1NC(=O)[C@H](CCCNC(=N)N)NC(=O)[C@H](CCCNC(=N)N)NC(=O)[C@H](Cc2ccc3ccccc3c2)NC(=O)[C@H](Cc2ccc3ccccc3c2)NC(=O)[C@H](Cc2ccc3ccccc3c2)NC(=O)[C@H](CCCNC(=N)N)NC1=O [IFX-009, c[Arg-Arg-Arg-Arg-NaI-NaI-NaI]] (cyclo(RRRR[2Nal][2Nal][2Nal])) | 1.5 (≈ 1.23 µM) | 1.5 (≈ 1.23 µM) | 12.5 (≈ 10.3 µM) | 25 (≈ 20.6 µM) | 205
N=C(N)NCCC[C@H](NC(=O)[C@H](CCCNC(=N)N)NC(=O)[C@H](CCCNC(=N)N)NC(=O)[C@@H](N)CCCNC(=N)N)C(=O)N[C@@H](Cc1ccc2ccccc2c1)C(=O)N[C@@H](Cc1ccc2ccccc2c1)C(=O)N[C@@H](Cc1ccc2ccccc2c1)C(=O)O [IFX-009-1, NH2-Arg-Arg-Arg-Arg-NaI-NaI-NaI-OH] (H-RRRR[2Nal][2Nal][2Nal]-OH) | 3.1 (≈ 2.51 µM) | 3.1 (≈ 2.51 µM) | 12.5 (≈ 10.1 µM) | 12.5 (≈ 10.1 µM) | 260
N=C(N)NCCC[C@@H]1NC(=O)[C@H](CCCNC(=N)N)NC(=O)[C@H](CCCNC(=N)N)NC(=O)[C@H](C(c2ccccc2)c2ccccc2)NC(=O)[C@H](C(c2ccccc2)c2ccccc2)NC(=O)[C@H](CCCNC(=N)N)NC1=O [IFX-010, c[Arg-Arg-Arg-Arg-Dip-Dip]] (cyclo([Dip][Dip]RRRR)) | 6.2 (≈ 5.79 µM) | 6.2 (≈ 5.79 µM) | 25 (≈ 23.3 µM) | 50 (≈ 46.7 µM) | 270
N=C(N)NCCC[C@H](NC(=O)[C@H](CCCNC(=N)N)NC(=O)[C@@H](N)CCCNC(=N)N)C(=O)N[C@@H](CCCNC(=N)N)C(=O)N[C@H](C(=O)N[C@H](C(=O)O)C(c1ccccc1)c1ccccc1)C(c1ccccc1)c1ccccc1 [IFX-010-1, NH2-Arg-Arg-Arg-Arg-Dip-Dip-OH] (H-RRRR[Dip][Dip]-OH) | 12.5 (≈ 11.5 µM) | 12.5 (≈ 11.5 µM) | 50 (≈ 45.9 µM) | 50 (≈ 45.9 µM) | 360

Next, values leading:

MIC MRSA ATCC BAA-1556 [1] [µg/mL] | MIC S. aureus ATCC 29213 (S. aureus ATCC 29213) [µg/mL] | MIC P. aeruginosa ATCC 27883 [2] [µg/mL] | MIC E. coli ATCC 25922 [3] [µg/mL] | HC50 (human red blood cells) | SMILES
6.2 (≈ 6.08 µM) | 6.2 (≈ 6.08 µM) | 50 (≈ 49.1 µM) | 50 (≈ 49.1 µM) | 295 | N=C(N)NCCC[C@@H]1NC(=O)[C@H](CCCNC(=N)N)NC(=O)[C@H](CCCNC(=N)N)NC(=O)[C@H](Cc2ccc3ccccc3c2)NC(=O)[C@H](Cc2ccc3ccccc3c2)NC(=O)[C@H](CCCNC(=N)N)NC1=O [IFX-011, c[Arg-Arg-Arg-Arg-NaI-NaI]] (cyclo([2Nal][2Nal]RRRR))
6.2 (≈ 5.98 µM) | 6.2 (≈ 5.98 µM) | >100 | 50 (≈ 48.2 µM) | 310 | N=C(N)NCCC[C@H](NC(=O)[C@H](CCCNC(=N)N)NC(=O)[C@H](CCCNC(=N)N)NC(=O)[C@@H](N)CCCNC(=N)N)C(=O)N[C@@H](Cc1ccc2ccccc2c1)C(=O)N[C@@H](Cc1ccc2ccccc2c1)C(=O)O [IFX-011-1, NH2-Arg-Arg-Arg-Arg-NaI-NaI-OH] (H-RRRR[2Nal][2Nal]-OH)
6.2 (≈ 4.27 µM) | 6.2 (≈ 4.27 µM) | 25 (≈ 17.2 µM) | 25 (≈ 17.2 µM) | 195 | N=C(N)NCCC[C@@H]1NC(=O)[C@H](CCCNC(=N)N)NC(=O)[C@H](CCCNC(=N)N)NC(=O)[C@H](C(c2ccccc2)c2ccccc2)NC(=O)[C@H](C(c2ccccc2)c2ccccc2)NC(=O)[C@H](C(c2ccccc2)c2ccccc2)NC(=O)[C@H](CCCNC(=N)N)NC(=O)[C@H](CCCNC(=N)N)NC1=O [IFX-012, c[Arg-Arg-Arg-Arg-Arg-Dip-Dip-Dip]] (cyclo([Dip][Dip][Dip]RRRRR))
6.2 (≈ 4.52 µM) | 6.2 (≈ 4.52 µM) | 25 (≈ 18.2 µM) | 50 (≈ 36.4 µM) | 230 | N=C(N)NCCC[C@@H]1NC(=O)[C@H](CCCNC(=N)N)NC(=O)[C@H](CCCNC(=N)N)NC(=O)[C@H](Cc2ccc3ccccc3c2)NC(=O)[C@H](Cc2ccc3ccccc3c2)NC(=O)[C@H](Cc2ccc3ccccc3c2)NC(=O)[C@H](CCCNC(=N)N)NC(=O)[C@H](CCCNC(=N)N)NC1=O [IFX-013, c[Arg-Arg-Arg-Arg-Arg-NaI-NaI-NaI]] (cyclo([2Nal][2Nal][2Nal]RRRRR))
3.1 (≈ 2.23 µM) | 3.1 (≈ 2.23 µM) | 25 (≈ 18 µM) | 25 (≈ 18 µM) | 200 | N=C(N)NCCC[C@H](NC(=O)[C@H](CCCNC(=N)N)NC(=O)[C@H](CCCNC(=N)N)NC(=O)[C@H](CCCNC(=N)N)NC(=O)[C@@H](N)CCCNC(=N)N)C(=O)N[C@@H](Cc1ccc2ccccc2c1)C(=O)N[C@@H](Cc1ccc2ccccc2c1)C(=O)N[C@@H](Cc1ccc2ccccc2c1)C(=O)O [IFX-013-1, NH2-Arg-Arg-Arg-Arg-Arg-NaI-NaI-NaI-OH] (H-RRRRR[2Nal][2Nal][2Nal]-OH)
12.5 (≈ 10.6 µM) | 12.5 (≈ 10.6 µM) | >100 | >100 | 415 | NCCCC[C@@H]1NC(=O)[C@H](CCCCN)NC(=O)[C@H](CCCCN)NC(=O)[C@H](C(c2ccccc2)c2ccccc2)NC(=O)[C@H](C(c2ccccc2)c2ccccc2)NC(=O)[C@H](C(c2ccccc2)c2ccccc2)NC(=O)[C@H](CCCCN)NC1=O [IFX-014, c[Lys-Lys-Lys-Lys-Dip-Dip-Dip]] (cyclo([Dip][Dip][Dip]KKKK))
12.5 (≈ 9.54 µM) | 6.2 (≈ 4.73 µM) | >100 | 50 (≈ 38.1 µM) | 480 | NCCCC[C@@H]1NC(=O)[C@H](CCCCN)NC(=O)[C@H](CCCCN)NC(=O)[C@H](C(c2ccccc2)c2ccccc2)NC(=O)[C@H](C(c2ccccc2)c2ccccc2)NC(=O)[C@H](C(c2ccccc2)c2ccccc2)NC(=O)[C@H](CCCCN)NC(=O)[C@H](CCCCN)NC1=O [IFX-015, c[Lys-Lys-Lys-Lys-Lys-Dip-Dip-Dip]] (cyclo([Dip][Dip][Dip]KKKKK))
25 (≈ 19 µM) | 12.5 (≈ 9.52 µM) | >100 | 25 (≈ 19 µM) | 320 | N=C(N)NCCC[C@H](NC(=O)[C@@H](NC(=O)[C@@H](NC(=O)[C@H](CCCNC(=N)N)NC(=O)[C@H](CCCNC(=N)N)NC(=O)[C@@H](NC(=O)[C@@H](N)CCCNC(=N)N)C(c1ccccc1)c1ccccc1)C(c1ccccc1)c1ccccc1)C(c1ccccc1)c1ccccc1)C(=O)O [IFX-016-1, NH2-Arg-Dip-Arg-Arg-Dip-Dip-Arg-OH] (H-R[Dip]RR[Dip][Dip]R-OH)

Reference: patent US20220289794A1, “SYNTHETIC ANTIMICROBIAL PEPTIDES” (priority 2019, published 2022)
